Entries after “also recorded” stand apart in the source; their conditions may differ. Like-named read-outs stand apart in the source and are kept apart here.
Key:
[1] = tested on: tissue glutathione levels; settings: rodent brains; cited from earlier work
[2] = tested on: intracellular levels of glutathione; settings: preclinical studies; cited from earlier work
Human HIV patients [3] = settings: single IV then six biweekly infusions, 13 administrations, highest dose tested; cited from earlier work
[4] = tested on: glutathione in rat lungs and leukocytes; settings: sulfur amino acid deficient rat diets, supplementation; cited from earlier work
Human ARDS patients [5] = test: Clinical: IV 63 mg/kg every 8 hours for 10 days, ARDS patients; type: in vivo; settings: compared to IV human (ARDS); suggested human oral dose 25 mg/kg/day
From the text: (§1) The following tables are a compilation of known results and estimates of NOAEL/LOAEL for various animal species and humans. […] In addition, genetic toxicity studies, Ames Test, Chromosome Aberration, and Mouse Micronucleus have been conducted and all of these studies were negative for genetic toxicity (i.e. non-genotoxic).
(§2) The following is a compilation of known results and estimates of NOAEL/LOAEL for various animal species and humans.

Human HIV patients [6] = settings: oral ≥25 mg/kg daily for 1 week, highest dose tested; cited from earlier work
Dog [7] = settings: in vivo, iv; cited from earlier work
dogs [8] = settings: dog, in vivo; cited from earlier work
Rat [9] = test: Single IV toxicity (NOAEL/LOAEL), rat; type: in vivo; settings: compared to IV rat, suggested human oral dose 0.025 g/kg
From the text: as §1, §2

[10] = tested on: tissue glutathione levels; settings: acutely septic rats; cited from earlier work
Mouse [11] = settings: in vivo; cited from earlier work
Human ARDS patients [12] = settings: IV every 8 hours for 10 days, highest dose tested, cited from earlier work
Human HIV patients [13] = test: Clinical: single IV then six biweekly infusions, 13 administrations, HIV patients; type: in vivo; settings: compared to human IV; suggested human oral dose 25 mg/kg/day
From the text: as §1, §2

[14] = tested on: cellular glutathione levels; settings: glutathione-depleting agents administered to otherwise healthy animals; cited from earlier work
Human HIV patients [15] = test: Clinical: single oral dose then 3000, 4500, 9000 mg/day for 28 days, HIV patients; type: in vivo; settings: compared to human oral, suggested human oral dose 25 mg/kg/day
From the text: as §1, §2

Rat [16] = test: Once daily IV for 28 days, rat; type: in vivo; settings: compared to IV rat, suggested human oral dose 0.025 g/kg
From the text: as §1, §2

Rat [17] = settings: in vivo, iv; cited from earlier work
human [18] = settings: cited from earlier work
rats [19] = test: Acute and repeat intravenous NOAEL in rats; type: in vivo; settings: recommended daily intake 1.75 g (~25 mg/kg) compared to rat IV NOAEL
Experimental: (§3) Utilizing animal (dog and rat) data and comparing that to the recommended daily procysteine (Cellactin) intake of 1.75 g or ˜25 mg/kg, that represents 18× to 96× safety margin compared to acute no adverse effect level (NOAEL) and repeat NOAEL intravenous administration in dogs (450 mg/kg) and rats (2400 mg/kg), respectively. The safety margin may be even greater if compared to animal oral administration data.
(§4) Acute NOAEL and repeat NOAEL for intravenous administration in dogs was 450 mg/kg and in rats was 2400 mg/kg, with these values representing the highest dosages intravenously tested and it is assumed that the NOAEL levels would be even higher for oral administration in animals. […] Therefore, it is reasonable to expect that a recommended human oral, daily procysteine (Cellactin) intake of 1.75 grams will be safe and an acceptable daily intake of up to 9 grams orally could also be considered safe.

Human HIV patients [20] = settings: cited from earlier work
Human HIV patients [21] = test: Clinical: oral ≥25 mg/kg daily for 1 week, HIV patients; type: in vivo; settings: compared to human oral, suggested human oral dose 25 mg/kg/day
From the text: as §1, §2

rats [22] = settings: rat, in vivo; cited from earlier work
dogs [23] = test: Acute and repeat intravenous NOAEL in dogs; type: in vivo; settings: recommended daily intake 1.75 g (~25 mg/kg) compared to dog IV NOAEL
Experimental: as §3, §4

liver glutathione levels = settings: fasted mice, dietary supplementation; cited from earlier work
Mouse [24] = settings: in vivo, iv; cited from earlier work
Dog [25] = test: Single IV toxicity (NOAEL/LOAEL), dog; type: in vivo; settings: compared to IV dog, suggested human oral dose 0.025 g/kg
From the text: as §1, §2

human [26] = test: Human intravenous NOAEL calculations; type: in vivo; settings: oral daily intake 1.75 grams compared to human intravenous NOAEL calculations
From the text: (§5) This would then result in an EDI/ADI ratio of 9 grams/day/9 grams/day=1. Without knowing the NOAEL or LOAEL for humans it is difficult to determine a true estimate of margin of safety. […] However, it would be reasonable to assume that a much higher estimate of safety margin would be expected based on the 4-8× estimate comparing oral, daily Procysteine (Cellactin) intake of 1.75 grams to human intravenous NOAEL calculations shown above in section 4.1 and 18 or 96× comparing to dog and rat intravenous NOAEL calculations, respectively shown above in Section 4.1. It is reasonable to conclude that the safety margin would be even greater if compared to animal oral administration data.
as §5, with “Without” for “This would then result in an EDI/ADI ratio of 9 grams/day/9 grams/day=1. Without”

patients with ARDS [27] = settings: Phase II, versus placebo; cited from earlier work
Dog [28] = test: Once daily IV for 28 days, dog; type: in vivo; settings: compared to IV dog, suggested human oral dose 0.025 g/kg
From the text: as §1, §2

Human HIV patients [29] = test: Clinical: orally up to 9000 mg/day for 2 years, HIV patients; type: in vivo
Rat [30] = settings: in vivo, iv; cited from earlier work; remark: listed apart in the source
[31] = Shelf life / purity stability of Cellactin; type: physicochemical
From the text: FIG. 9 illustrates Cellactin shelf life estimation by extrapolation. As depicted that upper dotted line indicates an upper acceptance of 100 percent stability. The lower dotted line indicates 99 percent stability. The solid line represents the extrapolation line with the triangles representing raw data. The product has been extrapolated to be stable for 2 years as supplied if stored in original package at ambient temperature and protected from heat and moisture. […] Confirmation of extrapolation assumes the change pattern may continue to fit model for at least 24 months.

Mouse [32] = test: Single IV toxicity (NOAEL/LOAEL), mouse; type: in vivo; settings: printed 'compared to IV rat', suggested human oral dose 0.025 g/kg
From the text: as §1, §2

blood glutathione levels = settings: human, oral 25-129 mg/kg (1.75-9 g/day), dose response manner; cited from earlier work
Dog [33] = settings: in vivo, iv; cited from earlier work; remark: listed apart in the source
Human HIV patients [34] = test: Clinical: oral daily for 6 months, HIV patients; type: in vivo; settings: compared to human oral, suggested human oral dose 25 mg/kg/day
From the text: as §1, §2

patients with ARDS [35] = settings: first Phase II trial, 32 ARDS patients, IV; cited from earlier work
Rat, neonate = settings: in vivo, iv; cited from earlier work
[36] = human, oral, as used for the EDI/ADI ratio

O=C1N[C@H](C(=O)O)CS1 [procysteine, L-2-oxothiazolidine-4-carboxylate]
tissue glutathione levels [1]: increased (repleted) | ROS damage [2]: prevent | intracellular levels of glutathione [2]: increase | NOAEL (Human HIV patients [3]): ≥100 mg/kg/day | glutathione in rat lungs and leukocytes [4]: preserved | Safety Margin Human Oral (Human ARDS patients [5]): 8X compared | NOAEL (Human HIV patients [6]): ≥25 mg/kg/day | NOAEL (Dog [7]): ≥450 mg/kg | acute NOAEL and repeat NOAEL, intravenous administration (dogs [8]): 450 mg/kg | Safety Margin Human Oral (Rat [9]): 96× compared | tissue glutathione levels [10]: increased (repleted) | Mouse Micronucleus, genetic toxicity (Mouse [11]): negative | NOAEL (Human ARDS patients [12]; expressed per day): ≥ 189 mg/kg/day | NOAEL (Human ARDS patients [12]): ≥63 mg/kg/8 hours | Safety Margin Human Oral (Human HIV patients [13]): 4X compared | cellular glutathione levels [14]: maintained | Safety Margin Human Oral (Human HIV patients [15]): 5X compared | Safety Margin Human Oral (Rat [16]): 96× compared | NOAEL (Rat [17]): ≥2400 mg/kg | adverse experiences possibly related to treatment (human [18]; across all clinical trials): only minor adverse experiences | statistically significant adverse events (human [18]; human clinical trials): No statistical significant adverse events were observed | tolerability (human [18]; human clinical trials): well tolerated | tolerability (human [18]; human clinical trials, listed as procysteine (Cellactin)): generally well tolerated without observed adverse effects; also recorded: well tolerated | safety margin (rats [19]): 96 × | NOAEL (Human HIV patients [20]; Human HIV patients, orally up to 9000 mg/day for 2 years, highest dose tested): ≥129 mg/kg/day | changes in serum chemistry or hematology (Human HIV patients [20]; human, up to 9 grams per day orally for 2 years): without clinically significant changes | Safety Margin Human Oral (Human HIV patients [21]): 1X compared | acute NOAEL and repeat NOAEL, intravenous administration (rats [22]): 2400 mg/kg | safety margin (dogs [23]): 18 × | liver glutathione levels (liver glutathione levels): increased | NOAEL (Mouse [24]): ≥2400 mg/kg | Safety Margin Human Oral (Dog [25]): 18× compared | estimate of safety margin (human [26]): 4-8 × | efficiency in transporting oxygen to the blood stream (measure of lung function) (patients with ARDS [27]): to a greater degree than did placebo-treated patients | Safety Margin Human Oral (Dog [28]): 18× compared | EDI/ADI ratio (Human HIV patients [29]; 9 grams/day / 9 grams/day): 1 | Safety Margin Human Oral (Human HIV patients [29]; compared to human oral, 2 years, suggested human oral dose 25 mg/kg/day): 5X compared | ADI (Human HIV patients [29]; [36]): < 9 grams/day | estimated daily intake (EDI) (Human HIV patients [29]; [36]): < 9 grams/day | acceptable daily intake (ADI) (Human HIV patients [29]; human, oral, based on 9 grams per day for 2 years): up to 9 grams per day | safety margin (Human HIV patients [29]; recommended oral daily intake 1.75 g compared to 9 grams per day taken orally for 2 years): 5 × | NOAEL (Rat [30]): ≥2400 mg/kg | shelf life (stable as supplied), by extrapolation ([31]; original package, ambient temperature, protected from heat and moisture): 2 years | purity percent change ([31]; two preparation batches, T0 to T6 (months)): No purity percent change | Safety Margin Human Oral (Mouse [32]): 96× compared | blood glutathione levels (blood glutathione levels): significant increase | NOAEL (Dog [33]): ≥450 mg/kg | Safety Margin Human Oral (Human HIV patients [34]): 5X compared | independence from mechanical ventilation versus placebo (patients with ARDS [35]): a median of five days earlier | NOAEL (Rat, neonate): ≥450 mg/kg

Reference: US10239847B1, “Method for 2-oxothiazolidine-4-carboxylic acid for cellular glutathione” (JBP Group LLC, priority 2016, dated 2019)
